Measurements from patent publication US20250282746A1, “HALOGEN-SUBSTITUTED ISOINDOLINE COMPOUND AND USE THEREOF” (CHENGDU FENDI PHARMACEUTICAL CO., LTD., priority 2022, published 2025).
“Also recorded” adds a separate entry of the source.

Columns and labels:
[1] = tested on: MOLM-13 cells; assay: Antiproliferative activity against various tumor cells: MOLM-13; assay type: cell-based; settings: Homo sapiens; MOLM-13 cells, 72 h; read-out: Antiproliferative activity IC50 MOLM-13
Experimental: (§1) U937, NCI-H929, AML-2, and MOLM-13 cells in the logarithmic growth phase were diluted in media RPMI+10% FBS, RPMI+10% FBS, MEMα+20% FBS, RPMI+20% FBS, respectively, and plated at 4,000 cells/well in 96-well whole black plates (WHB) with 50 μL/well. After plating, the plates were incubated in an incubator at 5% CO2 and 37° C. for 24 h before the compounds were added. The compounds were prepared into a 10 mM stock solution in DMSO and diluted in a culture medium to the desired concentrations (a final DMSO concentration of 0.2%). […] The plates were incubated at 5% CO2 and 37° C. for 72 h. After the incubation was complete, the plates were equilibrated at room temperature for 30 min. CellTiter-Glo® Reagent (Promega G7573) was added at 100 μL/well. The plates were shaken for 12 min on a microplate shaker. The luminescence value was measured at room temperature by the GloMax navigator (Promega GM2010).

[2] = tested on: MV-4-11 cells; assay: Apoptotic effect on AML cells (annexin/PI flow cytometry); assay type: cell-based, human; settings: 1 μM and 100 nM
Experimental: MV-4-11 cells in the logarithmic growth phase were diluted in a growth medium and plated at 600,000 cells/well in 6-well plates with 2 mL/well and the compounds were added. The cells were collected, washed twice with pre-cooled PBS, and resuspended in 100 μL of 1× annexin-binding buffer. 5 μL of FITC and 1 μL of 100 µg/mL PI were added. The cells were incubated at room temperature in the dark for 15 min and transferred on ice, and 400 μL of 1× annexin-binding buffer was added. The mixture was gently mixed and subjected to flow cytometry.

[3] = tested on: U937 cells; assay: Antiproliferative activity against various tumor cells: U937; assay type: cell-based; settings: Homo sapiens, U-937; U937 cells, 72 h; read-out: Antiproliferative activity IC50 U937
Experimental: as §1

[4] = tested on: NCI-H929 cells; assay: Antiproliferative activity against various tumor cells: NCI-H929; assay type: cell-based; settings: Homo sapiens; NCI-H929 cells, 72 h; read-out: Antiproliferative activity IC50 NCI-H929
Experimental: as §1

[5] = target: T1, GSPT1 protein (Homo sapiens, UniProt P15170); assay: Degradation of GSPT1 protein in NB-4 cells (Western blot); assay type: cell-based; settings: NB-4 cells, compound 1 μM, 6 h; read-out: GSPT1 degradation
T1 construct: The whole cell lysate was prepared using a RIPA lysis buffer; endogenous in cells; host or cells: NB-4 cells
T1 sequence (P15170 whole entry): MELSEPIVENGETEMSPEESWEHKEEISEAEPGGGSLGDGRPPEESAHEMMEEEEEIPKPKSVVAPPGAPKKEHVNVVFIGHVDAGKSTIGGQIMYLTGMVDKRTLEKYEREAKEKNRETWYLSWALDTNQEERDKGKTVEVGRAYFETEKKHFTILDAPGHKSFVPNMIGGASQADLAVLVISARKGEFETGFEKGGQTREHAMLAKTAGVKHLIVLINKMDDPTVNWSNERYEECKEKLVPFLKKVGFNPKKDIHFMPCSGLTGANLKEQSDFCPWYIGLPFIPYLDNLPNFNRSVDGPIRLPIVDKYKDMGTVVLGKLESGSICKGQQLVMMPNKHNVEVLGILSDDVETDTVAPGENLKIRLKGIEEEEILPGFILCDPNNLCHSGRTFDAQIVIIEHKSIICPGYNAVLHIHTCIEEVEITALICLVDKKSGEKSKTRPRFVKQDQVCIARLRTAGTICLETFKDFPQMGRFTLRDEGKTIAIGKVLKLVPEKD
How it was run: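 GSPT1 levels were read by Western blot (4-20% SDS-PAGE, PVDF, overnight primary antibody at 4 °C) on lysates of NB-4 cells.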

[6] = tested on: MV-4-11 cells; assay: Antiproliferative activity against MV-4-11 cells (CellTiter-Glo, 72 h); assay type: cell-based; settings: Homo sapiens, MV4-11; MV-4-11 cells, 72 h; read-out: Antiproliferative activity IC50
How it was run: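 MV-4-11 cells in RPMI + 10% FBS plated at 5,000 cells/well and pre-incubated 24 h at 37 °C, 5% CO2. Compounds were then added (final DMSO 0.2%) and cells incubated 72 h. Viability was read by CellTiter-Glo luminescence after 30 min equilibration at room temperature.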

[7] = tested on: AML-2 cells; assay: Antiproliferative activity against various tumor cells: AML-2; assay type: cell-based; settings: AML-2 cells, 72 h; read-out: Antiproliferative activity IC50 AML-2
Experimental: as §1

[8] = target: T2, hERG potassium channel (Homo sapiens, UniProt Q12809); assay: hERG inhibition assay (automated patch clamp, HEK293); assay type: cell-based; settings: 3 μM, HEK293 cells, QPatch
T2 construct: expressed in transfected cells; host or cells: HEK293 cells
T2 sequence (Q12809 whole entry): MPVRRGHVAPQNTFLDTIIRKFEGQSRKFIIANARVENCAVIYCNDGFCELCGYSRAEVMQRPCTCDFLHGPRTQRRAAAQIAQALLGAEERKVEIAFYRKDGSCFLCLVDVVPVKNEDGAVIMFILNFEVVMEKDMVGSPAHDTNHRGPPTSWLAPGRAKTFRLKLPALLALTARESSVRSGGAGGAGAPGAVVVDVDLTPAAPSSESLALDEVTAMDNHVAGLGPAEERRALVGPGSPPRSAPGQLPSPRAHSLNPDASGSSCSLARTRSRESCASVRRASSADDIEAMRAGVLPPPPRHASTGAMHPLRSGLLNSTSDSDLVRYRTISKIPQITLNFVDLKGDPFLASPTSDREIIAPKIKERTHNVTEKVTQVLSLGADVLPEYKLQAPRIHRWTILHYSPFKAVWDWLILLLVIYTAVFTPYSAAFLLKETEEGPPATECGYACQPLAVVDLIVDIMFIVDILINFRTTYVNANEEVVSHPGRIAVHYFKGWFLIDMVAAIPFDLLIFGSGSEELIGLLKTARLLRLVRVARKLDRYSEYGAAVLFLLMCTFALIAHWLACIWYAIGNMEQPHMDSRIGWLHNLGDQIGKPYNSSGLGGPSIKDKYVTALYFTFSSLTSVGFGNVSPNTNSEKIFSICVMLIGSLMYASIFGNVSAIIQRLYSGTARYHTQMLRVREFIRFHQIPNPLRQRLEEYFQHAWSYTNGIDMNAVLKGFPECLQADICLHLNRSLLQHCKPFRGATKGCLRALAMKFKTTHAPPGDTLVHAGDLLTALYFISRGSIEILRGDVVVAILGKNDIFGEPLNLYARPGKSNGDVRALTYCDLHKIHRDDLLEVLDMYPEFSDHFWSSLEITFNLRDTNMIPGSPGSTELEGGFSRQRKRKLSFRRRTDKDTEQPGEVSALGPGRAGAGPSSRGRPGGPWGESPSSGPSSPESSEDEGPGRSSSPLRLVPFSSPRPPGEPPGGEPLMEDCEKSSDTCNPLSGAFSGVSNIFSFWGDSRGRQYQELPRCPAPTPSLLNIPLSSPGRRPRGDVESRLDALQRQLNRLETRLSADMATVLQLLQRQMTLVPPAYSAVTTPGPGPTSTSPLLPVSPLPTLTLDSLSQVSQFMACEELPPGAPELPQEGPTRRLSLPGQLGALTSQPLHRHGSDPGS
Text: The rapidly activating potassium channel encoded by human ether-a-go-go-related gene (hERG) is an important ion channel involved in the formation of cardiac action potential phase 3 repolarization. Blocking of the hERG channel by drugs can lead to the prolongation of cardiac repolarization and thus a prolonged QT interval in the electrocardiogram, known as long QT syndrome. Drug-induced delayed ventricular repolarization may in some cases trigger fatal arrhythmia-torsade de pointes-type ventricular tachycardia.
This assay was used to measure the effect of compounds on the hERG potassium channel clones expressed in human embryonic kidney (HEK293) cells. The assay procedures are as follows: the cells were transferred into a HEPES-buffered saline in glass-lined 96-well plates and exposed to an appropriate amount of test compound or control solution at various concentrations for 3 min. The test compounds were diluted in 0.3% DMSO.

[9] = tested on: MV-4-11-Luc xenograft; assay: Efficacy in acute myeloid leukemia MV-4-11-luc xenograft mouse model; assay type: in vivo; settings: for T/C (%) Day 3 / T/C (%) Day 7 / T/C (%) Day 10 / T/C (%) Day 14: 10 mg/kg orally twice daily, NSG mice
Text: In an in vivo efficacy study, female immunocompromised NSG mice aged 6 to 8 weeks were used and the experimental procedures started after the animals were acclimatized in the experimental environment for 7 days. The animals were housed in SPF animal rooms in individually ventilated cages (IVCs) each containing 6 mice. Human acute myeloid leukemia MV-4-11 cells expressing luciferase (MV-4-11-luc) were grafted into mice by tail vein injection (5×10^6 cells/mouse). Seven days after the cell grafting, the mice were subjected to imaging on the IVIS Lumina III small animal imaging system for grouping and administration, and tumor-bearing mice were randomized to the vehicle control group or treatment groups (6 mice/group). The compound (10 mg/kg, twice daily) was administered to the animals in each treatment group by oral gavage. The body weight was measured daily, while mean luminescence was measured after the start of treatment with the compounds or vehicle.
Indicators: The indicators were to investigate whether the tumor growth was inhibited or delayed or the tumor was cured. The tumor size was measured twice weekly using the IVIS Lumina III small animal imaging system. The tumor signals were determined by exposure photons per second. The anti-tumor efficacy of the compounds was evaluated by the tumor proliferation rate T/C (%). T/C %=TRTV/CRTV×100% (TRTV: the RTV of the treatment group; CRTV: the RTV of negative control group; RTV=Vt/V0, where V0 is the tumor signal measured at the time of grouping and administration (i.e., day 0), and Vt is the tumor signal at every measurement). According to the guidelines of the Center for Drug Evaluation, NMPA, a T/C (%) of >40% denotes the absence of efficacy, while a T/C of <40% with P<0.05 denotes the presence of efficacy.

[10] = tested on: MOLM-13 cells; assay: Antiproliferative effect alone and in combination with azacitidine against MOLM-13 cells; assay type: cell-based; settings: MOLM-13 cells, 72 h
Experimental: (§2) MOLM-13 cells in the logarithmic growth phase were diluted in a medium RPMI+[…], and NCI-H929 cells were diluted in a medium RPMI+10% FBS. The cells were plated at 4,000 cells/well in 96-well whole black plates (WHB) with 50 μL/well. After plating, the plates were incubated in an incubator at 5% CO2 and 37° C. for 24 h before the compounds were added. The compounds were prepared into a 10 mM stock solution in DMSO and diluted in a culture medium to the desired concentrations (a final DMSO concentration of 0.2%). 50 μL of the compound dilutions at final concentrations of 10,000, 3,333.33, 1,111.11, 370.37, 123.46, 41.15, 13.72, 4.57, 1.52, and 0 nM were added to the 96-well plates containing the cells, that is, each compound was serially diluted to 10 concentrations in duplicate. The plates were incubated at 5% CO2 and 37° C. for 72 h. When pharmaceutical partners were used, the concentrations of azacitidine and dexamethasone were kept at 200 nM and 500 nM respectively, and the compounds were serially three-fold diluted from 10,000 nM. After the incubation was complete, the plates were equilibrated at room temperature for 30 min. CellTiter-Glo® Reagent (Promega G7573) was added at 100 μL/well. The plates were shaken for 12 min on a microplate shaker. The luminescence value was measured at room temperature by the GloMax navigator (Promega GM2010). The IC50 values were calculated using the GraphPad Prism 7 software with the 0 nM control group as 0% inhibition.

[11] = tested on: NCI-H929 cells; assay: Antiproliferative effect alone and in combination with dexamethasone against NCI-H929 cells; assay type: cell-based; settings: 72 h, read-out: IC50
Experimental: as §2

SMILES | IC50 [1] [nM] | apoptotic effect on MV-4-11 cells ([2]; treated for 7 h, 10 µM) | apoptotic effect on MV-4-11 cells ([2]; treated for 16 h) | IC50 [3] [nM] | IC50 [4] [nM] | inhibition at 1 µM [5] [%] | IC50 [6] [nM] | IC50 [7] [nM] | hERG inhibition rate [8] [%] | T/C (%) Day 3 [9] [%] | T/C (%) Day 7 [9] [%] | T/C (%) Day 10 [9] [%] | T/C (%) Day 14 [9] [%] | IC50 ([10]; compound alone) [nM] | IC50 ([10]; in combination with 200 nM azacitidine) [nM] | IC50 ([11]; compound alone) [nM] | IC50 ([11]; in combination with 500 nM dexamethasone) [nM] | tumor inhibitory effect in mouse xenograft model ([9]; oral administration, 10 mg/kg twice daily, within 14 days, 10 mg/kg)
O=C1CCC(N2Cc3c(ccc(CNC(=O)c4cc5cc(F)ccc5o4)c3F)C2=O)C(=O)N1 (centres unmarked) [FDAB-46] | 100 to 1000 | no apoptotic effect | apoptosis was induced | 10 to 100 | 1 to 10 | > 80 | 1 to 10 | 100 to 1000 |  |  |  |  |  |  |  |  |  | 
Cc1ccc(C(=O)NCc2ccc3c(c2F)CN(C2CCC(=O)NC2=O)C3=O)cc1F (centres unmarked) [FDAB-120] |  |  |  |  |  | > 80 | 10 to 100 |  | 13 | 6.69 | 1.58 | 2.00 | 2.12 |  |  |  |  | 
Cc1ccc(C(=O)NCc2ccc3c(c2F)CN(C2CCC(=O)NC2=O)C3=O)cc1 (centres unmarked) [FDAB-65] | 100 to 1000 | no apoptotic effect | apoptosis was induced | 10 to 100 | 1 to 10 | > 80 | 10 to 100 | 100 to 1000 | 11 | 4.58 | 1.40 | 1.01 | 0.78 |  |  |  |  | 
O=C1CCC(N2Cc3cc(CNC(=O)C(F)(F)c4ccc(Cl)cc4)ccc3C2=O)C(=O)N1 (centres unmarked) [CC-90009, reference compound] |  |  |  |  |  |  |  |  | 66 | 100.80 | 133.08 | 127.05 | 132.90 | 1420 | 43.9 | 3200 | 77.3 | no tumor inhibitory effects; also recorded: no tumor inhibitory activity
